Reference: patent US10118895B2, “ROR gamma (RORγ) modulators” (LEAD PHARMA HOLDING B.V., priority 2015, dated 2018)

Target: T1, RORγ (Homo sapiens, UniProt P51449)
T1 construct: expressed in transfected cells; host or cells: 293FT cells (Invitrogen), expression vector pFN26A (Promega)
T1 sequence (P51449 269-508 limits assumed): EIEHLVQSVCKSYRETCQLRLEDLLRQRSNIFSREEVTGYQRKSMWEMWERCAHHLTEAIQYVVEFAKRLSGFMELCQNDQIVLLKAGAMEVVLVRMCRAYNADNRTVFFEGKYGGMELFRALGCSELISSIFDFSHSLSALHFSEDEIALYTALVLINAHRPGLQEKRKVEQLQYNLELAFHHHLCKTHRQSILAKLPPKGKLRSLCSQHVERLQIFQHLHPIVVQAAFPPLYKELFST
Experiment: RORγ GAL4 reporter gene assay (luciferase readout, 293FT cells)
Format: cell-based
Settings: inhibition of RORγ (GAL4-RORγ-LBD) in transfected 293FT cells, luciferase signal, overnight incubation; read-out: mean pIC50 (converted)
Protocol: RORγ GAL4 Reporter Gene Assay
Example inhibitors 1-38 were tested for their ability to inhibit RORγ activity in a RORγ GAL4 reporter gene assay. The assay procedure and results are described below.
RORγ GAL4 Reporter Gene Assay Description
A GAL4 one-hybrid reporter system employing luciferase readout was established to determine inhibition of RORγ in 293FT cells. The RORγ ligand-binding domain (LBD) was fused to the yeast GAL4 DNA binding domain (DBD) and placed under the control of the human cytomegalovirus (CMV) immediate early promoter, using expression vector pFN26A (Promega) and standard recombinant DNA cloning methods. To serve as a control in the assay, a similar vector was generated in which the GAL4-DBD was fused to Herpes simplex virus protein 16 (VP16), a constitutive transcriptional activator.
To monitor the inhibitory effect of compounds on RORγ, a transcriptional reporter construct was used. The pGL4.35 vector (Promega) contains nine copies of the GAL4 Upstream Activator Sequence (UAS). This sequence drives the transcription of the luciferase reporter gene luc2P in response to binding of a fusion protein containing the GAL4 DNA binding domain, as for example expressed by the GAL4-RORγ-LBD and GAL4-VP16 expression vectors described above. To allow a GAL4 fusion protein to drive the expression of the luciferase reporter, the pGL4.35 expression vector and the appropriate GAL4 fusion protein expression vector were bulk transfected in the 293FT cells using standard transfection techniques.
The day after transfection, cells were plated into 96 well plates, test compound was added and the plates were incubated overnight. Subsequently, the firefly luciferase activity was quantified using luciferase detection reagent and luminescence readout.
Detailed Assay Description
293FT cells (Invitrogen) were transfected with a GAL4 fusion protein expression vector (as described above) and the transcriptional reporter construct (pGL4.35, Promega). 60 μL of TransIT-293 transfection reagent (Mirus Bio) was added drop wise to 1500 μl Opti-MEM I Reduced Serum Medium (Invitrogen) and incubated at RT (RT) for 5 to 20 minutes. 1500 μL of this reagent mixture was added to 5 μg of GAL4 fusion protein expression vector and 5 μg of the transcriptional reporter construct, and incubated at RT for 20 minutes.
To harvest 293FT cells from a T75 flask, first the culture medium was taken off the cells. Subsequently, the cells were washed with Phosphate Buffered Saline (PBS) (Lonza), after which the PBS was removed. To dissociate the cells, 1 ml of TrypLE Express (Invitrogen) was added to the flask, followed by incubation at RT until the cells visually started to detach. Cells were collected in 5 mL of assay medium (DMEM culture medium (Lonza), 10% dialyzed FBS (Invitrogen) and Pen/Strep (Lonza)) to achieve a single cell suspension. 10×10^6 cells were spun down and re-suspended in 10 mL of assay medium. Subsequently, the cell suspension was added to the transfection mix tube, and then transferred as a whole to a T75 flask (Greiner), followed by overnight (16-24 hours) incubation at 37° C. and 5% CO2.
For compound screening, the cells were harvested (as described above) and counted. 13×10^6 cells were spun down, the supernatant was aspirated and the cells were re-suspended in 17.3 mL of assay medium obtaining a cell suspension of 0.75×10^6 cells/mL. 80 μL of cell suspension (60,000 cells) was plated per well into a white, flat bottom, tissue culture treated, 96 well screening plates (Greiner).
Test compounds were diluted, starting from a 10 mM dimethylsulfoxide (DMSO) stock solution, to serial dilutions in DMSO at 500× the final test concentration. Subsequently, these solutions were diluted to 5× the final test concentration in two 10-fold-dilution steps in assay medium. The final DMSO concentration of the 5× test compound solution was 1%. […]

Row | SMILES | IC50 [nM]
1 | O=C(Cc1ccc(S(=O)(=O)CC2CC2(F)F)nc1)Nc1ccc(C(O)(C(F)(F)F)C(F)(F)F)cc1 (racemic) [(−)-22, (−)-2-[6-[(2,2-difluorocyclopropyl)methylsulfonyl]-3-pyridyl]-N-[4-[2,2,2-trifluoro-1-hydroxy-1-(trifluoromethyl)ethyl]phenyl]acetamide] | ≤ 1000
2 | CC(C)CCC(O)(c1ccc(NC(=O)Cc2ccc(S(=O)(=O)CC3CC3)nc2)cc1)C(F)(F)F (stereo not shown) [Example 13, 2-[6-(cyclopropylmethylsulfonyl)-3-pyridyl]-N-[4-[1-hydroxy-4-methyl-1-(trifluoromethyl)pentyl]phenyl]acetamide] | ≤ 1000
3 | O=C(Cc1ccc(S(=O)(=O)CC2CC2)nc1)Nc1ccc(C(OCCO)(C(F)(F)F)C(F)(F)F)cc1 [Example 28, 2-[6-(cyclopropylmethylsulfonyl)-3-pyridyl]-N-[4-[2,2,2-trifluoro-1-(2-hydroxyethoxy)-1-(trifluoromethyl)ethyl]phenyl]acetamide] | ≤ 1000
4 | COc1cc(C(O)(C(F)(F)F)C(F)(F)F)ccc1NC(=O)Cc1ccc(S(=O)(=O)CC2CC2)nc1 [Example 9, 2-[6-(cyclopropylmethylsulfonyl)-3-pyridyl]-N-[2-methoxy-4-[2,2,2-trifluoro-1-hydroxy-1-(trifluoromethyl)ethyl]phenyl]acetamide] | ≤ 1000
5 | O=C(Cc1ccc(S(=O)(=O)CC2CC2)nc1)Nc1ccc(C(OCC2COC2)(C(F)(F)F)C(F)(F)F)cc1 [Example 26, 2-[6-(cyclopropylmethylsulfonyl)-3-pyridyl]-N-[4-[2,2,2-trifluoro-1-(oxetan-3-ylmethoxy)-1-(trifluoromethyl)ethyl]phenyl]acetamide] | ≤ 1000
6 | O=C(Cc1ccc(S(=O)(=O)CC2CC2)nc1)Nc1ccc(C(O)(CC2CCCC2)C(F)(F)F)cc1 (stereo not shown) [Example 15, N-[4-[1-(cyclopentylmethyl)-2,2,2-trifluoro-1-hydroxy-ethyl]phenyl]-2-[6-(cyclopropylmethylsulfonyl)-3-pyridyl]acetamide] | ≤ 1000
7 | O=C(Cc1ccc(S(=O)(=O)CC2CC2)nc1)Nc1ccc(C(O)(c2ccccc2)C(F)(F)F)cc1 (stereo not shown) [Example 19, 2-[6-(cyclopropylmethylsulfonyl)-3-pyridyl]-N-[4-(2,2,2-trifluoro-1-hydroxy-1-phenyl-ethyl)phenyl]acetamide] | ≤ 100
8 | Cc1cc(NC(=O)Cc2ccc(S(=O)(=O)CC3CC3)nc2)ccc1C(O)(C(F)(F)F)C(F)(F)F [Example 3, 2-[6-(cyclopropylmethylsulfonyl)-3-pyridyl]-N-[3-methyl-4-[2,2,2-trifluoro-1-hydroxy-1-(trifluoromethyl)ethyl]phenyl]acetamide] | ≤ 100
9 | Cc1cc(S(=O)(=O)CC2CC2)ncc1CC(=O)Nc1ccc(C(O)(C(F)(F)F)C(F)(F)F)cc1 [Example 23, 2-[6-(cyclopropylmethylsulfonyl)-4-methyl-3-pyridyl]-N-[4-[2,2,2-trifluoro-1-hydroxy-1-(trifluoromethyl)ethyl]phenyl]acetamide] | ≤ 1000
10 | O=C(Cc1ccc(S(=O)(=O)CC2CC2)nn1)Nc1ccc(C(O)(C(F)(F)F)C(F)(F)F)cc1 [Example 37, 2-[6-(cyclopropylmethylsulfonyl)pyridazin-3-yl]-N-[4-[2,2,2-trifluoro-1-hydroxy-1-(trifluoromethyl)ethyl]phenyl]acetamide] | ≤ 1000
11 | O=C(Cc1ccc(S(=O)(=O)CC2CC2)nc1)Nc1ccc(C(O)(CC2CCCCC2)C(F)(F)F)cc1 (stereo not shown) [Example 16, N-[4-[1-(cyclohexylmethyl)-2,2,2-trifluoro-1-hydroxy-ethyl]phenyl]-2-[6-(cyclopropylmethylsulfonyl)-3-pyridyl]acetamide] | ≤ 1000
12 | O=C(Cc1ccc(S(=O)(=O)CC2CC2)nc1)Nc1ccc(C(O)(C(F)(F)F)C(F)(F)F)c(F)c1 [Example 4, 2-[6-(cyclopropylmethylsulfonyl)-3-pyridyl]-N-[3-fluoro-4-[2,2,2-trifluoro-1-hydroxy-1-(trifluoromethyl)ethyl]phenyl]acetamide] | ≤ 100
13 | O=C(Cc1ccc(S(=O)(=O)CC2CC2)cn1)Nc1ccc(C(O)(C2CC2)C2CC2)cc1 [Example 33, 2-[5-(cyclopropylmethylsulfonyl)-2-pyridyl]-N-[4-[dicyclopropyl(hydroxy)methyl]phenyl]acetamide] | ≤ 1000
14 | O=C(Cc1ccc(S(=O)(=O)CC2CC2)cn1)Nc1ccc(C(O)(C(F)(F)F)C(F)(F)F)cc1 [Example 29, 2-[5-(cyclopropylmethylsulfonyl)-2-pyridyl]-N-[4-[2,2,2-trifluoro-1-hydroxy-1-(trifluoromethyl)ethyl]phenyl]acetamide] | ≤ 100
15 | O=C(Cc1ccc(S(=O)(=O)CC2CC2)nc1)Nc1ccc(C(O)(C2CC2)C2CC2)cc1 [Example 18, 2-[6-(cyclopropylmethylsulfonyl)-3-pyridyl]-N-[4-[dicyclopropyl(hydroxy)methyl]phenyl]acetamide] | ≤ 1000
16 | O=C(Cc1ccc(S(=O)(=O)CC2CC2)nc1)Nc1ccc(C(O)(C(F)(F)F)C(F)(F)F)cn1 [Example 10, 2-[6-(cyclopropylmethylsulfonyl)-3-pyridyl]-N-[5-[2,2,2-trifluoro-1-hydroxy-1-(trifluoromethyl)ethyl]-2-pyridyl]acetamide] | ≤ 1000
17 | CC(C)CC(O)(c1ccc(NC(=O)Cc2ccc(S(=O)(=O)CC3CC3)nc2)cc1)C(F)(F)F (stereo not shown) [Example 12, 2-[6-(cyclopropylmethylsulfonyl)-3-pyridyl]-N-[4-[1-hydroxy-3-methyl-1-(trifluoromethyl)butyl]phenyl]acetamide] | ≤ 100
18 | Cc1cc(C(O)(C(F)(F)F)C(F)(F)F)ccc1NC(=O)Cc1ccc(S(=O)(=O)CC2CC2)nc1 [Example 7, 2-[6-(cyclopropylmethylsulfonyl)-3-pyridyl]-N-[2-methyl-4-[2,2,2-trifluoro-1-hydroxy-1-(trifluoromethyl)ethyl]phenyl]acetamide] | ≤ 1000
19 | COC(c1ccc(NC(=O)Cc2ccc(S(=O)(=O)CC3CC3)cn2)cc1)(C(F)(F)F)C(F)(F)F [Example 34, 2-[5-(cyclopropylmethylsulfonyl)-2-pyridyl]-N-[4-[2,2,2-trifluoro-1-methoxy-1-(trifluoromethyl)ethyl]phenyl]acetamide] | ≤ 100
20 | COC(c1ccc(NC(=O)Cc2ccc(S(=O)(=O)CC3CC3)nc2)cc1)(C(F)(F)F)C(F)(F)F [Example 2, 2-[6-(cyclopropylmethylsulfonyl)-3-pyridyl]-N-[4-[2,2,2-trifluoro-1-methoxy-1-(trifluoromethyl)ethyl]phenyl]acetamide] | ≤ 100
21 | CCCC(O)(c1ccc(NC(=O)Cc2ccc(S(=O)(=O)CC3CC3)nc2)cc1)C(F)(F)F (stereo not shown) [Example 11, 2-[6-(cyclopropylmethylsulfonyl)-3-pyridyl]-N-[4-[1-hydroxy-1-(trifluoromethyl)butyl]phenyl]acetamide] | ≤ 1000
22 | O=C(Cc1ccc(S(=O)(=O)CC2CC2)nc1)Nc1ccc(C(O)(C2CCCC2)C(F)(F)F)cc1 (stereo not shown) [Example 14, N-[4-(1-cyclopentyl-2,2,2-trifluoro-1-hydroxy-ethyl)phenyl]-2-[6-(cyclopropylmethylsulfonyl)-3-pyridyl]acetamide] | ≤ 1000
